From publication PMC8545574, “Antioxidant, Anti-Inflammatory, and Antidiabetic Activities of Bioactive Compounds from the Fruits of Livistona chinensis Based on Network Pharmacology Prediction” (Oxidative Medicine and Cellular Longevity, 2021) come the findings set out here.

SMILES strings stand for the structures. Read-outs that look alike come from different tables or passages of the source. A value given as a limit tells only on which side of the number the result lay.

The subject of assay [1] is insulin-resistant HepG2 cells. Kind of assay: Glucose consumption by insulin-resistant HepG2 cells. Format: cell-based, human. Particulars: for increase of glucose consumption: insulin resistance model of HepG2 cells, compounds at the dose of 50 μM, 24 h; for effect on glucose uptake (in words): insulin-resistant HepG2 cells. The protocol: HepG2 cells were cultivated in DMEM (without phenol red) containing 10% fetal bovine serum at 37°C in a humidified 5% CO2 atmosphere. An insulin-resistant cell model was established in accordance with a previous method, with some modifications. Cells were seeded in a 96-well plate with 1 × 10^4 cells per well. After incubation for 24 h, the medium was replaced with serum-free medium (without phenol red) containing 5 × 10^−6 mol/L insulin and incubated for 24 h. The cell culture medium was then replaced with the samples at different concentrations. The compounds were first dissolved in DMSO and subsequently diluted with medium containing 1% FBS to achieve different concentrations. The final concentration of DMSO was no more than 0.1%. At the end of the 24 h incubation, glucose in the medium was measured using the glucose oxidase-peroxidase method kit (Nanjing Jiancheng Biological Co., Ltd.). The amount of glucose consumption was calculated as follows: (glucose of the DMEM − glucose concentration of each well).

Assay [2] in a line: ABTS radical cation scavenging assay. Format: biochemical. Particulars: mean ± SD, n = 3. The protocol:
The ABTS radical cation (ABTS·+) was prepared by reacting ABTS with potassium persulfate following the method previously described. The ABTS radical cation (ABTS·+) was prepared by mixing with 2.45 mM potassium persulfate and equal volumes of an ABTS solution (7 mM), and then, they were permitted to react in the darkness at room temperature for 12–16 h. Thereafter, the ABTS reagent was diluted with methyl alcohol until reaching an absorbance of 0.70 ± 0.02 units at 734 nm. In a 96-well microplate, ABTS reagent (190 μL in each well) and samples (10 μL in each well) were incubated at room temperature for 20 min. To determine the antioxidant capacity by the ABTS method, the experimental conditions and protocol were identical to those of the DPPH assay. The only difference was that the absorbance was measured at 734 nm.

Assay [3] addresses T1, PTP1B (Homo sapiens, UniProt P18031).
T1 sequence (P18031 1-321 limits assumed): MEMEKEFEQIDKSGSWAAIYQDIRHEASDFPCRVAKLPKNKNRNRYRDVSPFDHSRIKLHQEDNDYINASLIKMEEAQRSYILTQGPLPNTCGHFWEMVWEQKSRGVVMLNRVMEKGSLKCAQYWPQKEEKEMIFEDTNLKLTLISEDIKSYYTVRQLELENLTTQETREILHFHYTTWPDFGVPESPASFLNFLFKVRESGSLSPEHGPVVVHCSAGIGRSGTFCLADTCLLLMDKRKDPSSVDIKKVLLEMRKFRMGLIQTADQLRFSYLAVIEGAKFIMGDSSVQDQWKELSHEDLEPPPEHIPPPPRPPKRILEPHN
Kind of assay: Fluorescence quenching measurement of PTP1B. Format: binding. Further details: purchased Abcam (Shanghai) Trading Co., Ltd. ab51277. Particulars: for Kd: read-out: K A (binding constant) (converted). The protocol: 180 μL of the buffer with 10 μL of the PTP1B at the concentration used in the assays were added into the 96-well black plates followed by 10 μL different concentrations (0, 6.25, 9.37, 12.5, 18.75, 25, and 50 μM) of inhibitor. The excitation wavelength was set at 250 nm, and the fluorescence emission spectra were collected from 300-400 nm with an emission bandwidth of 2 nm. The quenching parameters such as the Stern-Volmer constant (KSV), binding constant (KA), and the number of binding sites (n) were determined by the formula [33]. (4) F0/F=1+KSVQf,logFo−F/F=logKA+nlogQf, where F0 and F are the fluorescence intensities in the absence and presence of a quencher and [Q]f is a concentration of compounds.

The target in assay [4] is T1, PTP1B. Kind of assay: PTP1B inhibitory assay (p-NPP substrate).
Protocol: PTP1B (10 μg/mL stock solution) was dissolved in 10 mM citrate buffer (pH 6.0), 1 mM dithiothreitol (DTT), and 1 mM N, N, N′, N′-ethylenediaminetetraacetate (EDTA). 20.0 μL PTP1B stock solution and 60 μL citrate buffer were added to each well of a 96-well plastic plate.
In assay [5] the target is T1, PTP1B. Kind of assay: PTP1B enzyme inhibition kinetic study (Lineweaver-Burk and Dixon plots). Further details: purchased Abcam (Shanghai) Trading Co., Ltd. ab51277. It is filed as biochemical. Particulars: for Ki: determined by Dixon plots; for Inhibitory mode: determined by Lineweaver-Burk plots. The protocol:
Lineweaver−Burk double reciprocal plot and Dixon plot were used to study the kinetic behavior of active compounds against PTP1B and the corresponding inhibition constants (Ki values). […] The plate reader recorded the absorbance of the reaction mixture every 3 mins. The enzymatic velocity of the enzyme reaction was calculated based on the time − Δabs plot. The Lineweaver−Burk plot and Dixon plot were generated by GraphPad Prism 8 in order to determine the type of PTP1B inhibition and Ki.

The target in assay [6] is α-Glucosidase (from Baker's yeast). In words: α-Glucosidase inhibitory assay (p-NPG substrate). Particulars: read-out: IC50 α-Glucosidase inhibitory effect; mean ± SD, n = 3.
Protocol: The extract, fractions, and compounds were dissolved in 5% DMSO and then diluted with phosphate buffer. Briefly, 80 μL PBS, 20 μL of varying concentrations of sample solutions, and 20 μL α-glucosidase solution (1.3 U/mL) were mixed and incubated in 96-well plates at 37°C for 5 min. The reaction started when 20 μL p-nitrophenyl-α-D-glucopyranoside (2.5 mM) was added to the plate. The reaction mixture was incubated for 15 min at 37°C, and then, 80 μL Na2CO3 (0.2 M) was added to stop the reaction.
Assay [7] is described as follows: DPPH free radical scavenging assay. Format: biochemical. Particulars: mean ± SD, n = 3. The protocol:
The DPPH free radical scavenging assay was performed according to a previously reported method. A series of different concentrations of the tested samples and the positive control ascorbic acid were mixed with freshly prepared DPPH (0.2 mM) in a 96-well microplate with a total volume of 150 μL. After leaving the mixture to react in the dark for 30 min, its absorbance was determined at 517 nm. All of the wells with only samples were set as blanks to obtain an absorbance value, which was subtracted from the test sample readings. The percentage inhibition (%) for each sample was calculated by the following formula: (1) Inhibition %=Absblank−Abssamples/Absblank×100%, where Absblank and Abssamples correspond to the absorbance units (at 517 nm) of DPPH solutions incubated in the absence and presence of the tested samples.
(In general: The DPPH test is a chemical assay of radical scavenging.)

For assay [8], the system named is LPS-stimulated NO release in RAW 264.7 cells. Kind of assay: Nitrite (Griess) assay of LPS-stimulated NO release. Format: cell-based. Particulars: Mus musculus, RAW264.7, LPS (1 μg/mL)-stimulated RAW 264.7 cells; mean ± SD, n = 3; read-out: IC50 NO production anti-inflammatory effect. The protocol:
The level of NO production was tested by measuring the nitrite level in the culture medium with the Griess method. Cells were seeded at a density of 2 × 10^4 cells per well in 96-well plates. […] A microplate reader was employed for the optical density measurement at 570 nm.
In general terms: The Griess reaction detects nitrite, a stable product of nitric oxide.

In the case of `CN(CCOc1ccc(CC2SC(=O)NC2=O)cc1)c1ccccn1` (centres unmarked) [rosiglitazone, reference compound], the “increase of glucose consumption” value in assay [1] was 46.7%.
Usually IC50 stands for the point on the concentration scale where inhibition reaches its midpoint. Broadly, the Ki is the dissociation constant of the complex between target and ligand, obtained from inhibition or displacement. The low end stands for tighter binding, the high end for weaker binding. In assay [2], `COC1(C)CC2c3c(cc(O)cc3O1)OC(c1ccc(O)c(O)c1)C2O` (centres unmarked) [Compound 1, Livischinol] showed an IC50 of 34.91 ± 0.07 µM. Also, at PTP1B [3], the “K SV (Stern-Volmer constant)” value came to 37000 L/mol, the “n (number of binding sites)” value was 1.08 and the Kd is 10.5 µM. The molecule further had an IC50 on PTP1B [4] of 9.41 ± 0.08 µM. For the same molecule, at PTP1B [5], the Ki was 1.49 µM and the Inhibitory mode entry is reported as “Competitive”. Besides, the concentration for half-maximal inhibition (IC50) in assay [6] was found to be 37.3 ± 0.74 µM. Also, in assay [7], the half-inhibitory concentration (IC50) is 46.8 ± 1.53 µM. Moreover, in assay [1], the “increase of glucose consumption” value was determined as 48.9% and the “effect on glucose uptake (in words)” value is on record as “stimulated glucose uptake”.
As to `COc1cc([C@H]2OC[C@H]3[C@H]2CO[C@@H]3c2cc(OC)c(O[C@@H](CO)[C@@H](O)c3cc(OC)c(O)c(OC)c3)c(OC)c2)cc(OC)c1O` [Compound 36, (7S,7′S,7^″S,8R,8′R,8^″R)-4′,4^″-dihydroxy-3,3′,3^″,5,5′,5^″-hexamethoxy-7,9′:7′,9-diepoxy-4,8^″-oxy-8,8′-sesquineolignan-7^″,9^″-diol], the IC50 in assay [2] was 31.1 ± 0.44 µM; against PTP1B [4], 63.19 ± 0.33 µM; in assay [8] it was 79.7 ± 1.17 µM; in assay [6] it was 22.7 ± 1.07 µM; in assay [7], 62.44 ± 0.42 µM.
As to `COc1cc([C@@H](O)[C@H](CO)Oc2ccc(CCCO)cc2OC)ccc1O` [Compound 20, erythro-(7R,8S)-guaiacyl-glycerol-β-O-4′-dihydroconiferyl ether], the IC50 in assay [2] is 60.92 ± 0.46 µM; against PTP1B [4], 93.6 ± 1.07 µM; in assay [8], 53.16 ± 0.24 µM; in assay [6], 52.6 ± 1.33 µM; in assay [7] it was above 100 µM.
In the same order, the values of `COc1cc([C@H]2OC[C@H]3[C@@H]2CO[C@@H]3c2cc(OC)c(O)c(OC)c2)ccc1O` [Compound 30, (+)-medioresinol] are 25.58 ± 0.12 µM, 26.75 ± 0.21 µM, 55.5 ± 1.85 µM, 34.4 ± 0.5 µM and 95.7 ± 2.44 µM.
`COc1cc([C@@H](O)[C@H](CO)Oc2c(OC)cc([C@@H]3OC[C@@H]4[C@H]3CO[C@H]4c3ccc(O)c(OC)c3)cc2OC)ccc1O` (single isomer, unassigned) [Compound 33]: the IC50 in assay [2] worked out at 33.4 ± 0.45 µM; on PTP1B [4] (read-out: IC50 PTP1B inhibitory effect, mean ± SD, n = 3), 62.1 ± 0.73 µM; in assay [8], 47.4 ± 0.85 µM; in assay [6], 50.9 ± 1.78 µM; in assay [7], 66.67 ± 0.52 µM.
With `COc1cc(C2Oc3c(OC)cc(CCCOC4OC(CO)C(O)C(O)C4O)cc3C2CO)ccc1O` [Compound 17, (7S,8R)-dihydrodehydrodiconiferyl alcohol-9′-O-β-D-glucoside], the IC50 was 33.49 ± 0.31 µM in assay [2]; above 100 µM on PTP1B [4]; 17.3 ± 0.6 µM in assay [8]; above 100 µM in assay [6]; above 100 µM in assay [7].
Turning to `COc1cc(C2Oc3c(OC)cc(CCCO)cc3C2CO)ccc1O` [Compound 13, (7S,8R)-dihydrodehydrodiconiferyl alcohol], the IC50 is 24.6 ± 0.31 µM in assay [2]; above 100 µM at PTP1B [4]; 76.69 ± 0.51 µM in assay [8]; 88.62 ± 0.49 µM in assay [6]; 87.78 ± 0.74 µM in assay [7].
Regarding `COc1c(O)cc(O)c2c(=O)cc(-c3ccccc3)oc12` [Compound 6, wogonin], the IC50 in assay [2] was above 100 µM; against PTP1B [4], 22.2 ± 0.58 µM; in assay [8], 49.4 ± 1.85 µM; in assay [6] it was above 100 µM; in assay [7], 99.36 ± 0.44 µM. Besides, on PTP1B [3], the “K SV (Stern-Volmer constant)” value worked out at 22000 L/mol. Also, the “n (number of binding sites)” value at PTP1B [3] came out at 1.12. The Kd at PTP1B [3] was 76.9 µM. The inhibitory constant (Ki) at PTP1B [5] came out at 4.18 µM. For the same molecule, the Inhibitory mode result at PTP1B [5] is recorded as “Mixed-type”. In assay [1], the “effect on glucose uptake (in words)” value is given as “little effect”.
For the molecule `COc1cc(CCCO)ccc1O[C@@H](CO)[C@H](O)c1cc(OC)c(O)c(OC)c1` [Compound 21], the IC50 in assay [2] is 93 ± 0.54 µM; against PTP1B [4], 67 ± 1.2 µM; in assay [8], 55.54 ± 0.41 µM; in assay [6], 61.8 ± 0.76 µM; in assay [7], above 100 µM.
`COc1cc(O)cc2c1C(=O)c1c(cc(C)c(C(=O)OCC(O)CO)c1O)C2=O` (centres unmarked) [Compound 44, variecolorquinones A] registered an IC50 in assay [2] of 13 ± 0.27 µM. Also, on PTP1B [3], the “K SV (Stern-Volmer constant)” value amounted to 23000 L/mol, the “n (number of binding sites)” value is 0.97 and the Kd is 17.2 µM. In addition, at PTP1B [4], the half-maximal inhibitory concentration (IC50) was determined as 15.8 ± 0.29 µM. On PTP1B [5], the inhibition constant Ki was determined as 2.8 µM and the Inhibitory mode entry is “Competitive”. In addition, the half-maximal inhibitory concentration (IC50) in assay [6] came to 29.6 ± 0.4 µM. The molecule further came in with a half-maximal inhibitory concentration (IC50) in assay [7] of 23.1 ± 0.27 µM. In assay [1], the “increase of glucose consumption” value turned out to be 42.8% and the “effect on glucose uptake (in words)” value is on record as “stimulated glucose uptake”.
Consider `COc1cc([C@@H](O)[C@H](CO)Oc2ccc([C@@H]3OC[C@@H]4[C@H]3CO[C@H]4c3ccc(O)c(OC)c3)cc2OC)ccc1O` [Compound 32], for which the IC50 in assay [2] is 40.63 ± 0.23 µM; against PTP1B [4], 81.93 ± 0.78 µM; in assay [8], 46.2 ± 0.67 µM; in assay [6], 5.71 ± 0.17 µM; in assay [7], 96.4 ± 2.26 µM.
For the molecule `COc1cc(C2Oc3c(OC)cc(CCCO)cc3C2CO)ccc1OC1OC(CO)C(O)C(O)C1O` [Compound 16, (7S,8R)-dihydrodehydrodiconiferyl alcohol-4-O-β-D-glucopyranoside], the IC50 was above 100 µM in assay [2]; above 100 µM on PTP1B [4]; 36.7 ± 0.8 µM in assay [8]; above 100 µM in assay [6]; above 100 µM in assay [7].
Consider `COc1cc(O)c2c(=O)cc(-c3ccc(O)cc3)oc2c1` [Compound 7, genkwanin], for which the concentration for half-maximal inhibition (IC50) in assay [2] was 63.11 ± 0.24 µM; on PTP1B [4] it was 30.2 ± 0.45 µM; in assay [8] it was 70.79 ± 0.67 µM; in assay [6], above 100 µM; in assay [7], 78.76 ± 0.61 µM.
In the same order, the values of `COc1cc([C@H](O)[C@H](CO)Oc2ccc(CCCO)cc2OC)ccc1O` [Compound 19, threo-(7S,8S)-guaiacyl-glycerol-β-O-4′-dihydroconiferyl ether] are 54.67 ± 0.34 µM, 95.63 ± 0.47 µM, 43.6 ± 0.9 µM, 58.37 ± 0.44 µM and above 100 µM.
